One series relates to human dendritic cells. It is filed as cell-based. On the procedure:
MAPPS profiles the MHC-II presented peptides on human dendritic cells treated with tested molecules. CD14+ cells, isolated from the PBMCs of normal human donors, are cultured and differentiated into immature DCs by incubation with IL-4 and GM-CSF. On day 4, culture media is replaced with fresh media containing tested molecules. On day 5, LPS is added to transform the cells into mature DCs. On day 6, cells are lysed in RIPA buffer with protease inhibitors. Immunoprecipitation of MHC-II complexes are performed using biotinylated anti-MHC-II antibody coupled to streptavidin beads. The bound complex is eluted and filtered. The isolated MHC-II peptides are analyzed by a mass spectrometer. Peptide identifications are generated by an internal proteomics pipeline using search algorithms with no enzyme and a bovine/human database with test sequences appended to the database. A KNIME workflow is used to process the identification files from the samples. Peptides identified from the test articles are aligned against the parent sequence of the test molecule. The output is used to determine the percentage of donors displaying MHC-II peptides from regions of the test molecule. Compound II, Compound IV, Compound VI, Compound VIII, a compound representative of U.S. Pat. No. 9,023,789 (hereinafter “Compound '789”), and Pramlintide are tested in the MAPPs assay.

Series [1] is described as follows: DIO rats: Compound II alone and in combination with incretin compounds. Particulars: for Cumulative Food Intake: 14-day treatment period, mean±SEM. Format: in vivo, Long Evans rats. On the procedure:
This study is conducted to investigate the effect of Compound II for diabetes and/or obesity conditions in DIO rats when administered in combination with other incretin compounds, including a GLP-1 agonist (Compound XVII), oxyntomodulin analog (Compound XVIII), and a triagonist of glucagon, GLP-1, and GIP (Compound XIX). Diet-induced obese (DIO) male Long Evans (Envigo) rats, maintained on a calorie rich diet since arrival at Lilly (TD95217; Teklad, Madison, WI), are used in the following studies. Animals are individually housed in a temperature-controlled (24° C.) facility with 12-hour light/dark cycle (lights on 2200) and free access to food (TD95217) and water.
The rats are randomized according to their body weight, so that each experimental group of animals would have similar body weight. The body weights range from 529 to 823 grams.
Each group contains five rats. […] SC injections are made on Days 1, 4, 7, 10 and 13. Body weight and food intake are measured daily throughout the study. Absolute changes in body weight are calculated by subtracting the body weight of the same animal prior to the first injection of molecule.
At the end of the study, blood is collected to measure blood glucose and plasma insulin. Blood glucose is measured by AccuChek glucometers (Roche, Indianapolis, IN). Insulin is measured by ELISA (MSD, Rockville, MD).
All data are presented as mean±SEM of 5 animals per group. Statistical analysis is performed using one-way ANOVA, followed by Tukey's multiple comparison test to compare treatment groups to vehicle group or each other. Significant differences are identified at p<0.05.

Starred links: 1 amine or outer side, 2 acyl side, 3 side chain; linkers in the order of their positions; H or OH if unused. Non-standard residues stand in square brackets, D forms with d. Groups on a side chain read outwards from the residue. *: point of attachment. C20 diacid = O=C(O)CCCCCCCCCCCCCCCCCCC(=O)*; γGlu = O=C(O)[C@H](CCC(=O)[*:2])N[*:1]; AEEA = NCCOCCOCC(=O)O; Aib = CC(C)(N)C(=O)O

Protocol for CD4+ T cells: This assay assesses the ability of tested antibodies or tested MAPPS peptides to activate CD4+ T cells by inducing cellular proliferation. CD8+ T cell depleted PBMC's are prepared and labeled with CFSE. Each sample is tested with media control, keyhole limpet haemocyanin (KLH; positive clinical benchmark control), tested antibodies, or tested MAPPS peptides. Cultures are incubated for 7 days. On day 7, samples are analyzed by flow cytometry.

In the case of `CC[C@H](C)[C@H](NC(=O)[C@@H]1CCCN1C(=O)CNC(=O)[C@H](Cc1ccccc1)NC(=O)[C@H](CC(N)=O)NC(=O)[C@H](CC(N)=O)NC(=O)[C@H](CO)NC(=O)[C@H](CO)NC(=O)[C@H](Cc1c[nH]cn1)NC(=O)[C@@H](NC(=O)[C@H](CC(C)C)NC(=O)[C@H](Cc1ccccc1)NC(=O)[C@H](CC(N)=O)NC(=O)[C@H](C)NC(=O)[C@H](CC(C)C)NC(=O)[C@H](CCCNC(=N)N)NC(=O)[C@H](CCC(N)=O)NC(=O)[C@@H](NC(=O)[C@H](C)NC(=O)[C@@H]1CSSC[C@H](NC(=O)[C@@H](N)CCCCN)C(=O)N[C@@H](CC(N)=O)C(=O)N[C@@H]([C@@H](C)O)C(=O)N[C@@H](C)C(=O)N[C@@H]([C@@H](C)O)C(=O)N1)[C@@H](C)O)C(C)C)C(=O)N[C@@H](CC(C)C)C(=O)N1CCC[C@H]1C(=O)N1CCC[C@H]1C(=O)N[C@H](C(=O)N[C@@H](CC(N)=O)C(=O)N[C@H](C(=O)NCC(=O)N[C@@H](CO)C(=O)N[C@@H](CC(N)=O)C(=O)N[C@H](C(=O)N[C@@H](Cc1ccc(O)cc1)C(N)=O)[C@@H](C)O)C(C)C)[C@@H](C)O` [Compound XV, reference compound], in the series with human dendritic cells, the “MAPPS Assay donors displayed peptides” value was 10/10, the “MAPPS Assay immunogenicity risk” value was “High Risk” and the “peptides displayed on MHC-II complexes” value was “two peptide clusters that in total span residues 1-34”. Also, in the series with CD4+ T cells, the “T Cell Proliferation Assay: protein, immunogenicity risk” value was “High Risk” and the “T Cell Proliferation Assay: protein, positive donors” value is “(7/7 positive”.
On to “Y-Aib-QGTFTSDYSI-αMeL-LDKK((2-[2-(2-Amino-ethoxy)-ethoxy]-acetyl)-(γGlu)-CO-(CH2)18-CO2H)AQ-Aib-AFIEYLLEGGPSSGAPPPS-NH2 (YXQGTFTSDYSIXLDKKAQXAFIEYLLEGGPSSGAPPPS; Aib, αMeL; lipidated Lys; C-terminal amide; SITE 2 X at position 2 is Aib; SITE 13 X at position 13 is alpha-methyl-leucine; MOD_RES 17 K at position 17 is chemically modified by conjugation of the epsilon-amino group of the lysine side chain with (2-[2-(2-amino-ethoxy)-ethoxy]-acetyl)-(gamma-glutamic acid)-CO-(CH2)18-CO2H; SITE 20 X at position 20 is Aib; MOD_RES 39 S at position 39 is amidated) [Compound XIX, triagonist of glucagon, GLP-1, and GIP]”, for which, in series [1] (3 nmol/kg SC Day 1, 4, 7, 10, 13, Day 1 to Day 14, mean±SEM), the “Body Weight Change” value is -43.28 ± 2.54 g. The “Cumulative Food Intake” value in series [1] (3 nmol/kg SC every three days) worked out at 157.50 ± 10.63 g.
As to “H-Aib-QGTFTSDYSKYLDEKKAK((2-[2-(2-Amino-ethoxy)-ethoxy]-acetyl)2-(γGlu)-CO-(CH2)18-CO2H)EFVEWLLEGGPSSG-NH2 (H-H[Aib]QGTFTSDYSKYLDEKKAK([AEEA-AEEA-γGlu-C20 diacid])EFVEWLLEGGPSSG-NH2) [Compound XVIII, oxyntomodulin analog]”, the “Body Weight Change” value in series [1] (10 nmol/kg SC Day 1, 4, 7, 10, 13, Day 1 to Day 14, mean±SEM) is -50.24 ± 6.36 g. The “Cumulative Food Intake” value in series [1] (10 nmol/kg SC every three days) was determined as 165.86 ± 7.45 g.

Values taken from patent US12551532B2, “Long-acting amylin receptor agonists and uses thereof” (Eli Lilly and Company, priority 2021, dated 2026).
